Test results published in publication doi:10.1101/2024.08.14.606984v2 (biorxiv, 2024).

Biological target: GCN2 (Homo sapiens, UniProt Q9P2K8)
Experiment: SPR, steady state
Assay type: binding

Chain of GCN2 (Q9P2K8 whole entry): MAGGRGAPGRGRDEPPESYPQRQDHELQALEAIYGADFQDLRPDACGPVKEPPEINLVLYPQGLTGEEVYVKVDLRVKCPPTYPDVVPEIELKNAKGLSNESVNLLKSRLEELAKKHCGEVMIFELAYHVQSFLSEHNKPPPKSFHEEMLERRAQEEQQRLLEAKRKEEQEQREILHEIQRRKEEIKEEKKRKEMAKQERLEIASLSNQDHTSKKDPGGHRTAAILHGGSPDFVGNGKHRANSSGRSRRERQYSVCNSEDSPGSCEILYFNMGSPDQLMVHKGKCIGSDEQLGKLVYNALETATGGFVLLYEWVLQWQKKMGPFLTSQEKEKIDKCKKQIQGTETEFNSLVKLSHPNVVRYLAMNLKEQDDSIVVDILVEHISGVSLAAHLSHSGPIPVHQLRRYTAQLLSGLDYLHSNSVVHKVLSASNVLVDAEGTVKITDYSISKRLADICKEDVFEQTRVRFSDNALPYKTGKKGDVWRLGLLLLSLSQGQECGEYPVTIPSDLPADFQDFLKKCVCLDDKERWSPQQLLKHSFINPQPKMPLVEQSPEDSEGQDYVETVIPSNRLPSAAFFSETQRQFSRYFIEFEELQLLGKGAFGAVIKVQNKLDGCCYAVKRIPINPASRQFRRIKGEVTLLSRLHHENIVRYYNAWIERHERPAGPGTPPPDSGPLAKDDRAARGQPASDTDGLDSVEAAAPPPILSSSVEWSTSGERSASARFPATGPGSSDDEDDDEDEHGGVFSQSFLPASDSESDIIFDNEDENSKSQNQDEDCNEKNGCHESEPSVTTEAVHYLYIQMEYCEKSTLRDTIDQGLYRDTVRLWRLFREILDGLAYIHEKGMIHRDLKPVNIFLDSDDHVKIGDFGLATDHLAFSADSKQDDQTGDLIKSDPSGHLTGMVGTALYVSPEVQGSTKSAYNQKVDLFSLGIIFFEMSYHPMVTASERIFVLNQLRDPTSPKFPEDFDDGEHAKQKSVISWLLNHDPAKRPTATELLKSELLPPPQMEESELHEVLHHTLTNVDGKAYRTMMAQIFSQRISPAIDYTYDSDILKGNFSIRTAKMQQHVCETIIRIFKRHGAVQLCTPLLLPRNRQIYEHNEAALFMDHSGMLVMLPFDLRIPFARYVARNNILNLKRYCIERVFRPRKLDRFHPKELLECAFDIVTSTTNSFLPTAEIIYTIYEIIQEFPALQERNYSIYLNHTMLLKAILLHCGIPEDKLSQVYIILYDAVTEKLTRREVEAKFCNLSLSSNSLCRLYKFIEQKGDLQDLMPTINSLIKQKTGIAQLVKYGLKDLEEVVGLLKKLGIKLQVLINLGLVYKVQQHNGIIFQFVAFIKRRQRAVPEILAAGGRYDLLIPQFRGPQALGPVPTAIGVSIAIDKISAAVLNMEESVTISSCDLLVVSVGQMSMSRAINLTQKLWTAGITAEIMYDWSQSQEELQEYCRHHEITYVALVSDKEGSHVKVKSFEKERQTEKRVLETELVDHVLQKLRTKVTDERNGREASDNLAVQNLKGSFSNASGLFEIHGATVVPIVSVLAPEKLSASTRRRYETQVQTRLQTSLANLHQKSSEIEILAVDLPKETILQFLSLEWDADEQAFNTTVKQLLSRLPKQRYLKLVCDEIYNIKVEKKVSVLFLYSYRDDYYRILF

Kd: 43.1 ± 2.5 µM
SMILES: CNc1ncc2cc(-c3cc(NC(=O)NCCC(C)(C)C)c(F)cc3C)c(C)nc2n1 [LY-3009120]
